In PubChem BioAssay AID248 (DTP/NCI, 2004) one finds T/C data, which are given here for 23 compounds.

In the experiment the test system is L1210 leukemia ip in BDF1 mice, survival T/C. Briefly: NCI In Vivo Anticancer Drug Screen. Data for tumor model L1210 Leukemia (intraperitoneal) in B6D2F1 (BDF1) mice. Conditions: endpoint: mean survival time, higher = longer survival. The method, boiled down: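 Tumor was transplanted into mice, which were then dosed with test compound or vehicle alone. Survival was recorded for each group, and the treated figure was expressed relative to the control figure.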

[1] abbreviates: dose: 100.0 mg/kg/injection, schedule: Q04DX003 (ip), vehicle: saline.
Setting [2] is: dose: 100.0 mg/kg/injection, schedule: Q01DX001 (ip), vehicle: saline.
[3] abbreviates: dose: 200.0 mg/kg/injection, schedule: Q01DX001 (ip), vehicle: saline.
Where [4] appears, read: dose: 400.0 mg/kg/injection, schedule: Q01DX001 (ip), vehicle: saline.
Setting [5] is: dose: 50.0 mg/kg/injection, schedule: Q01DX009 (ip), vehicle: saline with Tween-80.
[6] abbreviates: dose: 100.0 mg/kg/injection, schedule: Q01DX009 (ip), vehicle: saline with Tween-80.
Setting [7] is: dose: 100.0 mg/kg/injection, schedule: Q01DX009 (ip), vehicle: Klucel (hydroxypropylcellulose) (HPC).
[8] abbreviates: dose: 200.0 mg/kg/injection, schedule: Q01DX009 (ip), vehicle: Klucel (hydroxypropylcellulose) (HPC).
Where [9] appears, read: dose: 100.0 mg/kg/injection, schedule: Q04DX002 (ip), vehicle: Klucel (hydroxypropylcellulose) (HPC).
The mark [10] stands for this setting: dose: 100.0 mg/kg/injection, schedule: Q01DX001 (ip), vehicle: carboxymethylcellulose (CMC).
Where [11] appears, read: dose: 200.0 mg/kg/injection, schedule: Q01DX001 (ip), vehicle: carboxymethylcellulose (CMC).
[12] abbreviates: dose: 400.0 mg/kg/injection, schedule: Q01DX001 (ip), vehicle: carboxymethylcellulose (CMC).
The mark [13] stands for this setting: dose: 100.0 mg/kg/injection, schedule: Q04DX003 (ip), vehicle: Klucel (hydroxypropylcellulose) (HPC).
Where [14] appears, read: dose: 200.0 mg/kg/injection, schedule: Q04DX003 (ip), vehicle: Klucel (hydroxypropylcellulose) (HPC).
The mark [15] stands for this setting: dose: 400.0 mg/kg/injection, schedule: Q04DX003 (ip), vehicle: Klucel (hydroxypropylcellulose) (HPC).
Setting [16] is: dose: 200.0 mg/kg/injection, schedule: Q04DX002 (ip), vehicle: Klucel (hydroxypropylcellulose) (HPC).
[17] abbreviates: dose: 400.0 mg/kg/injection, schedule: Q01DX009 (ip), vehicle: Klucel (hydroxypropylcellulose) (HPC).

SMILES strings stand for the structures. Values joined by “and” are separate entries in the source; they are usually repeats but may differ in a detail not shown here. Equal entries are not always repeated. Inconclusive results and toxic doses are left out.

Turning to `COC1OC(CN(CCO)CCO)C2OC(C)(C)OC12` (stereo unspecified), the T/C is 97 % of control (dose: 12.5 mg/kg/injection, schedule: Q04DX003 (ip), vehicle: saline); 98 % of control (dose: 25.0 mg/kg/injection, schedule: Q01DX009 (ip), vehicle: saline); 89 % of control (dose: 25.0 mg/kg/injection, schedule: Q04DX003 (ip), vehicle: saline); 94 % of control (dose: 50.0 mg/kg/injection, schedule: Q01DX009 (ip), vehicle: saline); 97 % of control (dose: 50.0 mg/kg/injection, schedule: Q04DX003 (ip), vehicle: saline); 89 % of control (dose: 100.0 mg/kg/injection, schedule: Q01DX009 (ip), vehicle: saline). Also, the T/C reads like this: under setting [1], 94 % of control; (dose: 335.0 mg/kg/injection, schedule: Q01DX009 (ip), vehicle: saline) 101 % of control.

As for `CN(C)S(=O)(=O)c1ccc(NC(=O)OC2CCCCC2)cc1`, the T/C by setting is: under setting [2], 96 % of control; under setting [3], 91 % of control; under setting [4], 96 % of control.

For the compound `CCOC(=O)NN=C1CCCC1`, the T/C was 94 % of control under setting [5] and 97 % of control under setting [6].

On to `CCCCOC(=S)SSC(=S)OCCCC`, for which the T/C is, setting by setting: (dose: 25.0 mg/kg/injection, schedule: Q01DX009 (ip), vehicle: saline with Tween-80) 97 % of control; under setting [5], 93 % of control; under setting [6], 103 % of control and 104 % of control.

As for `CC(=O)Nc1cc([As](=O)(O)O)ccc1O`, the T/C is 105 % of control (dose: 50.0 mg/kg/injection, schedule: Q01DX009 (ip), vehicle: Klucel (hydroxypropylcellulose) (HPC)); 102 % of control under setting [7]; 97 % of control under setting [8].

`O=S(=O)(O)Sc1ncnc2nc[nH]c12`: the T/C was 162 % of control (dose: 125.0 mg/kg/injection, schedule: Q01DX009 (ip), vehicle: water); 159 % of control (dose: 250.0 mg/kg/injection, schedule: Q01DX009 (ip), vehicle: water); 153 % of control (dose: 250.0 mg/kg/injection, schedule: Q04DX003 (ip), vehicle: water).

Consider `Nc1nc(N)c2[nH]c(CCc3ccccc3)nc2n1`, for which the T/C was 95 % of control (dose: 25.0 mg/kg/injection, schedule: Q04DX002 (ip), vehicle: Klucel (hydroxypropylcellulose) (HPC)); 91 % of control (dose: 50.0 mg/kg/injection, schedule: Q04DX002 (ip), vehicle: Klucel (hydroxypropylcellulose) (HPC)); 98 % of control under setting [9].

Turning to `OCCOCC(F)(F)F`, the T/C runs as follows: under setting [2], 97 % of control; under setting [3], 100 % of control; under setting [4], 105 % of control; (dose: 400.0 mg/kg/injection, schedule: Q01DX015 (ip), vehicle: saline) 96 % of control; (dose: 800.0 mg/kg/injection, schedule: Q01DX001 (ip), vehicle: saline) 105 % of control; (dose: 800.0 mg/kg/injection, schedule: Q01DX015 (ip), vehicle: saline) 101 % of control. For the same compound, the T/C (dose: 1600.0 mg/kg/injection, schedule: Q01DX001 (ip), vehicle: saline) is 108 % of control.

Regarding `CCN(CC)CCOc1ccc(C2=C(c3ccccc3)CCc3cc(OC)ccc32)cc1`, the T/C by setting is: under setting [10], 90 % of control; under setting [11], 92 % of control; under setting [12], 90 % of control.

With `COC(=O)/C=C\n1cnc2ccccc21`, the T/C is, setting by setting: (dose: 75.0 mg/kg/injection, schedule: Q01DX001 (ip), vehicle: saline) 109 % of control; (dose: 150.0 mg/kg/injection, schedule: Q01DX001 (ip), vehicle: saline) 112 % of control; (dose: 300.0 mg/kg/injection, schedule: Q01DX001 (ip), vehicle: saline) 107 % of control.

For the compound `Nc1ccc(NC(=O)c2ccc3ccccc3c2O)c(Cl)c1`, the T/C is 94 % of control under setting [13], 97 % of control under setting [14] and 94 % of control under setting [15].

In the case of `N#Cc1c(O)ccc(O)c1C#N`, the T/C reads like this: under setting [7], 87 % of control; under setting [9], 90 % of control; under setting [8], 87 % of control; under setting [16], 93 % of control; under setting [17], 94 % of control; (dose: 400.0 mg/kg/injection, schedule: Q04DX002 (ip), vehicle: Klucel (hydroxypropylcellulose) (HPC)) 96 % of control.

Turning to `COc1ccc(Br)cc1/C=C\C=O`, the T/C runs as follows: under setting [10], 87 % of control; under setting [11], 105 % of control; under setting [12], 100 % of control.

Consider `CC(CO)CCCC(C)C1CCC2C3CC=C4CC(O)CCC4(C)C3CCC12C` (stereo unspecified), for which the T/C (dose: 100.0 mg/kg/injection, schedule: Q01DX001 (ip), vehicle: saline with Tween-80) was 94 % of control; the T/C (dose: 200.0 mg/kg/injection, schedule: Q01DX001 (ip), vehicle: saline with Tween-80) is 90 % of control; the T/C (dose: 400.0 mg/kg/injection, schedule: Q01DX001 (ip), vehicle: saline with Tween-80) is 100 % of control.

`Oc1c(Br)cc(Br)cc1/C=N/N1CCN(/N=C/c2cc(Br)cc(Br)c2O)CC1`: the T/C by setting is: under setting [2], 87 % of control; under setting [4], 90 % of control.

Regarding `COC(=O)C1=C(N)OC(C)(C)C1c1ccc(Cl)cc1` (stereo unspecified), the T/C runs as follows: under setting [2], 100 % of control; under setting [3], 94 % of control; under setting [4], 97 % of control.

`c1ccc(CSc2ncnc3nc[nH]c23)nc1`: the T/C is 116 % of control (dose: 50.0 mg/kg/injection, schedule: Q04DX003 (ip), vehicle: saline sonified) and 113 % of control (dose: 100.0 mg/kg/injection, schedule: Q04DX003 (ip), vehicle: saline sonified).

Regarding `O=C([O-])C1CCCCC1[I+]c1ccccc1` (stereo unspecified), the T/C reads like this: under setting [1], 100 % of control; (dose: 200.0 mg/kg/injection, schedule: Q04DX003 (ip), vehicle: saline) 98 % of control.

For `CO/[N+]([O-])=C\C(=O)N/C=C/C(=O)O`, the T/C reads like this: (dose: 13.3 mg/kg/injection, schedule: Q01DX Z (ip), vehicle: carboxymethylcellulose (CMC)) 93 % of control; (dose: 20.0 mg/kg/injection, schedule: Q01DX Z (ip), vehicle: carboxymethylcellulose (CMC)) 101 % of control.

As to `CC(C)CCCC(C)CC1CC(C)CCC1O` (stereo unspecified), the T/C under setting [7] was 93 % of control; the T/C under setting [13] was 98 % of control; the T/C under setting [8] is 92 % of control; the T/C under setting [14] was 94 % of control; the T/C under setting [17] is 101 % of control; the T/C under setting [15] is 96 % of control.

With `N=C(N)SC1c2ccccc2-c2cc([N+](=O)[O-])ccc21` (stereo unspecified), the T/C was 105 % of control (dose: 100.0 mg/kg/injection, schedule: Q01DX005 (ip), vehicle: Klucel (hydroxypropylcellulose) (HPC)); 101 % of control under setting [9]; 98 % of control (dose: 200.0 mg/kg/injection, schedule: Q01DX005 (ip), vehicle: Klucel (hydroxypropylcellulose) (HPC)); 114 % of control under setting [16].

Regarding `CN/N=C/c1ccc([N+](=O)[O-])cc1`, the T/C is, setting by setting: (dose: 25.0 mg/kg/injection, schedule: Q04DX002 (ip), vehicle: DMSO) 96 % of control; (dose: 50.0 mg/kg/injection, schedule: Q04DX002 (ip), vehicle: DMSO) 96 % of control; (dose: 100.0 mg/kg/injection, schedule: Q04DX002 (ip), vehicle: DMSO) 96 % of control and 98 % of control; (dose: 200.0 mg/kg/injection, schedule: Q04DX002 (ip), vehicle: DMSO) 88 % of control.

For the compound `Cc1cc2c(cc1C)C(=O)OC2=O`, the T/C is, setting by setting: under setting [6], 102 % of control; (dose: 200.0 mg/kg/injection, schedule: Q01DX009 (ip), vehicle: saline with Tween-80) 98 % of control; (dose: 400.0 mg/kg/injection, schedule: Q01DX009 (ip), vehicle: saline with Tween-80) 100 % of control.
